This note sets out measurements from patent publication US10253019B2, “Tank-binding kinase inhibitor compounds” (Gilead Sciences, Inc., priority 2014, dated 2019).

The target in assay [1] is hJAK2 (Homo sapiens (Human), UniProt O60674). Description: hJAK2 LANCE TR-FRET enzymatic assay. The assay is classed as biochemical. Conditions: read-out: JAK2 IC50. On the technique in general: In TR-FRET formats the signal depends on donor and acceptor labels being close together.
Assay [2] deals with IKKε (Homo sapiens (Human), UniProt Q14164). As to the kind of experiment: IKKε TR-FRET enzymatic assay. The assay is classed as biochemical. Conditions: 2x Km ATP, geometric mean of at least four determinations, read-out: IKKe IC50.
Sequence of IKKε (Q14164 whole entry): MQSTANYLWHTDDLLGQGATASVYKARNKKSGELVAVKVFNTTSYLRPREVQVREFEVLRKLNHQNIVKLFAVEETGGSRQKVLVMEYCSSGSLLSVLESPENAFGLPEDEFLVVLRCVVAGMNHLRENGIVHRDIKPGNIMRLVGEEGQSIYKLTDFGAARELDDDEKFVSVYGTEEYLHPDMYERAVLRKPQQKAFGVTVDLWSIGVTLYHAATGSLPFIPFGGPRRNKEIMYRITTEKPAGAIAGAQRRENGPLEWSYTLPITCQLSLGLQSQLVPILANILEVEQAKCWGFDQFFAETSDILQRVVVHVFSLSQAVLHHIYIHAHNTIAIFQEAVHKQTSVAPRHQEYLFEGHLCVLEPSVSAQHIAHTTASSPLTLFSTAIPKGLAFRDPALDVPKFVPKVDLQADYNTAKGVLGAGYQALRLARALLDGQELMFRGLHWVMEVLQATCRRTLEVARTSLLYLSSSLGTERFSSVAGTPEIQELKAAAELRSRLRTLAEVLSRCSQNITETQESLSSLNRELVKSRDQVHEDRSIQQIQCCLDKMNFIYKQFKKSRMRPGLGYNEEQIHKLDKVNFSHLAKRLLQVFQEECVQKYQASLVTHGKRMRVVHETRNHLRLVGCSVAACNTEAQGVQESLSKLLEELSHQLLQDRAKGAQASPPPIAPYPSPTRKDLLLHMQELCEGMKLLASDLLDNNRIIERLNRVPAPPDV
Assay [3] concerns the target TBK1 (Homo sapiens (Human), UniProt Q9UHD2). Description: TBK1 TR-FRET enzymatic assay. The following applies: read-out: TBK1 IC50, 2x Km ATP, geometric mean of at least four determinations.
Protocol: Enzymatic activity of IKKε and TBK1 was measured using a homogeneous time resolved fluorescence resonance energy transfer (TR-FRET) assay that monitors enzyme dependent phosphorylation of a biotinylated serine/threonine peptide substrate. […] TBK1 and IKKε were expressed and purified as full length recombinant proteins. Detection reagents for the assay were purchased from Cisbio. […] After an assay reaction time of 240 minutes at 25° C., reactions were terminated with EDTA.
All IC50 values represent geometric mean values of a minimum of four determinations.

Sequence of TBK1 (Q9UHD2 whole entry): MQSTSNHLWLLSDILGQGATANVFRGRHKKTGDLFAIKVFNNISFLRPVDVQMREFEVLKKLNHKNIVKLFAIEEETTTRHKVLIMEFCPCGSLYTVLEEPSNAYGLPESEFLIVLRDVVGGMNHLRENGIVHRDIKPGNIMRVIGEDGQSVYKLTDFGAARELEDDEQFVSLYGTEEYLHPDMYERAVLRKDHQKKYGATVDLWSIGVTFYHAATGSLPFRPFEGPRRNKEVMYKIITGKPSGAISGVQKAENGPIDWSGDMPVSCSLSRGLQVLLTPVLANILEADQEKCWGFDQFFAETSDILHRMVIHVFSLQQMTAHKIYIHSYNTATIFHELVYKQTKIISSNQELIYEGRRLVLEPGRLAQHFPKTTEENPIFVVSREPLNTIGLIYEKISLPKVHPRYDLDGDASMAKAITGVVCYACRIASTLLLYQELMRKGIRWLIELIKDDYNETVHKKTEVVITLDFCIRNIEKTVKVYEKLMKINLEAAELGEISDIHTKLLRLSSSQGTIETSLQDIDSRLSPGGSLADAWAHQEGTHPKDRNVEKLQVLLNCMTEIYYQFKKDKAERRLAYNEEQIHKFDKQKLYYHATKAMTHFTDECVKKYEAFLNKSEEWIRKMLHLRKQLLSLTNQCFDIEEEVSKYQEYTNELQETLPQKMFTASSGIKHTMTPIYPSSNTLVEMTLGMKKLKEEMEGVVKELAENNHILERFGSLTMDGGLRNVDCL
Sequence of hJAK2 (O60674 whole entry): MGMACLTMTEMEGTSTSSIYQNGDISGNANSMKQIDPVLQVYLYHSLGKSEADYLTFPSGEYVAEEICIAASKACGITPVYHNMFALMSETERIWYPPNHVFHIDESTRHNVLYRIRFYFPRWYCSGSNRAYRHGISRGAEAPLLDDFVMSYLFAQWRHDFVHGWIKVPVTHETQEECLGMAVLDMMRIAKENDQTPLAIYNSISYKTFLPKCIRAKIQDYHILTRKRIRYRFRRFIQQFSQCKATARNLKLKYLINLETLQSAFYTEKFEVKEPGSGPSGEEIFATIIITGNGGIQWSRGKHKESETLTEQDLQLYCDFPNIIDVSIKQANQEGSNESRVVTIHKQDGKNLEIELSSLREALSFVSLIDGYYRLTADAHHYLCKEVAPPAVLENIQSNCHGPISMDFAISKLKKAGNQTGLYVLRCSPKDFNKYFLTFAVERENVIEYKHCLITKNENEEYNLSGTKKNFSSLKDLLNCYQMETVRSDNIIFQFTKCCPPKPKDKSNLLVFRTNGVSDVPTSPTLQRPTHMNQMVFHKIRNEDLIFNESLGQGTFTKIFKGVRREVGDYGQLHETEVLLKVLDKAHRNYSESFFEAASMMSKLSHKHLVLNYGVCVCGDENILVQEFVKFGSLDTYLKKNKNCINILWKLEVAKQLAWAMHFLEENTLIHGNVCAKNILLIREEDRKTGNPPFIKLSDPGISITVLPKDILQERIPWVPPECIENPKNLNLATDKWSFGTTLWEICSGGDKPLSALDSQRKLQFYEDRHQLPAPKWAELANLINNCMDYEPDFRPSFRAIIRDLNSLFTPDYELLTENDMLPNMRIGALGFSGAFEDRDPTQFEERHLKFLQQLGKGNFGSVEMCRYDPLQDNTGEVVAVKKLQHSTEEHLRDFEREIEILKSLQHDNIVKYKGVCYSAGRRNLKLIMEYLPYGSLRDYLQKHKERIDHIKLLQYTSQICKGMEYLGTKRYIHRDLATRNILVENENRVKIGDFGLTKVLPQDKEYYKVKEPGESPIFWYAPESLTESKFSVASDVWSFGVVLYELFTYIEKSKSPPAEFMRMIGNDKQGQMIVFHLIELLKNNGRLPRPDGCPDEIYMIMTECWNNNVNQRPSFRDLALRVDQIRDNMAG

The term IC50 denotes the point on the concentration scale where inhibition reaches its midpoint. “2-(((3R,4S)-3-fluoro-1-((S)-pyrrolidine-2-carbonyl)piperidin-4-yl)oxy)-5-(4-((4-(4-(oxetan-3-yl)piperazin-1-yl)phenyl)amino)-1,3,5-triazin-2-yl)benzonitrile [Example 133]”: the IC50 in assay [1] and in assay [2] was 1000 nM throughout.
Regarding `N#Cc1cc(-c2ncnc(Nc3cnn(C(F)F)c3)n2)ccc1O[C@H]1CCNC[C@H]1F` [Example 453, 5-(4-((1-(difluoromethyl)-1H-pyrazol-4-yl)amino)-1,3,5-triazin-2-yl)-2-(((3R,4S)-3-fluoropiperidin-4-yl)oxy)benzonitrile], the IC50 in assay [3] was 359 nM.
As for “2-(((3R,4S)-1-((R)-4,4-difluoropyrrolidine-2-carbonyl)-3-fluoropiperidin-4-yl)oxy)-5-(4-((4-(4-(oxetan-3-yl)piperazin-1-yl)phenyl)amino)-1,3,5-triazin-2-yl)benzonitrile [Example 132]”, the IC50 is 1000 nM in assay [1], 25 nM in assay [3] and 51 nM in assay [2].
